# What was measured:
# Assay type in all cases: protein-complex assay
# Ecdysone receptor [1] = target: T1, Ecdysone receptor (Spodoptera frugiperda, UniProt Q8MWR1+Q8MWR2); experiment: Binding affinity to Spodoptera frugiperda (fall armyworm) EcR
# T1 sequence (Q8MWR2 whole entry): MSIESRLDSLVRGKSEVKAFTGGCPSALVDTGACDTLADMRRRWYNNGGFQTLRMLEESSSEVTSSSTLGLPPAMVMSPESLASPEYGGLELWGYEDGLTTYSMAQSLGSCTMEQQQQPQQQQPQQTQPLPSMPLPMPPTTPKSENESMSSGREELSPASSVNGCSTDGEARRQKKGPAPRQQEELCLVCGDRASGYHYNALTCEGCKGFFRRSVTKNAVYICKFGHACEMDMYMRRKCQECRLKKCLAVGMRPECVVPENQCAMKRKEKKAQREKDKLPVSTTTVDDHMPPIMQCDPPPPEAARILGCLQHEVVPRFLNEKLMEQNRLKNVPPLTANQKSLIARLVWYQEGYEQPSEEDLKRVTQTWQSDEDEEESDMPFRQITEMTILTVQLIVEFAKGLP
# T1 sequence (Q8MWR1 whole entry): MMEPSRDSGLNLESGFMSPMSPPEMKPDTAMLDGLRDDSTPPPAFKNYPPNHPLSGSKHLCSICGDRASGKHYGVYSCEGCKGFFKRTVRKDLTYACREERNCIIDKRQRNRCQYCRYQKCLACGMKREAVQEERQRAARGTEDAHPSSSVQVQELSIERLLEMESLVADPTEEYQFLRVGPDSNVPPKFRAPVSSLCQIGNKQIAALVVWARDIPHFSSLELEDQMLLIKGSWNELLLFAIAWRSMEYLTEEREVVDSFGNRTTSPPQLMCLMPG
# Ecdysone receptor [2] = target: T2, Ecdysone receptor (Lucilia cuprina, UniProt O18531+Q962I5); experiment: Binding affinity to Lucilia cuprina EcR
# T2 sequence (O18531 whole entry): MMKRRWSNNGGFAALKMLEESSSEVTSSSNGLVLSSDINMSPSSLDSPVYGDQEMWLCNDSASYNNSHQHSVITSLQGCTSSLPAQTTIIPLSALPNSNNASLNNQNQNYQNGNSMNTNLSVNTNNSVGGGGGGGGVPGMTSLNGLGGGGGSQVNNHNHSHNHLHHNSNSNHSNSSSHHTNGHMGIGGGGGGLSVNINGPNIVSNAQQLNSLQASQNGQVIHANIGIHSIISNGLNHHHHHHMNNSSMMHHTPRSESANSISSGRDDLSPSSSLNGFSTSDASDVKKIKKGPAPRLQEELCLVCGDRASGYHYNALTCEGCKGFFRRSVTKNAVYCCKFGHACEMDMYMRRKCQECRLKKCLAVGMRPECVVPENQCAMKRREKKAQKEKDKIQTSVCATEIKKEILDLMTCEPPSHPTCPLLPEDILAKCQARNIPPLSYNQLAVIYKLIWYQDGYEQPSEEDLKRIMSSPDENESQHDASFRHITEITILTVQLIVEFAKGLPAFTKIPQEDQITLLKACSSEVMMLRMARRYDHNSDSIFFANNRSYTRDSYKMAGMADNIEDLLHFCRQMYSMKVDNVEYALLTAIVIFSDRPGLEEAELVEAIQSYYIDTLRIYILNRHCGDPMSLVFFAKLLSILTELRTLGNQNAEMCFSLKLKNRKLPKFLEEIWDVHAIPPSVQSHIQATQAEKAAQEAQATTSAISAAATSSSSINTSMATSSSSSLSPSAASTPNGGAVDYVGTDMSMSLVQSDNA
# T2 sequence (Q962I5 whole entry): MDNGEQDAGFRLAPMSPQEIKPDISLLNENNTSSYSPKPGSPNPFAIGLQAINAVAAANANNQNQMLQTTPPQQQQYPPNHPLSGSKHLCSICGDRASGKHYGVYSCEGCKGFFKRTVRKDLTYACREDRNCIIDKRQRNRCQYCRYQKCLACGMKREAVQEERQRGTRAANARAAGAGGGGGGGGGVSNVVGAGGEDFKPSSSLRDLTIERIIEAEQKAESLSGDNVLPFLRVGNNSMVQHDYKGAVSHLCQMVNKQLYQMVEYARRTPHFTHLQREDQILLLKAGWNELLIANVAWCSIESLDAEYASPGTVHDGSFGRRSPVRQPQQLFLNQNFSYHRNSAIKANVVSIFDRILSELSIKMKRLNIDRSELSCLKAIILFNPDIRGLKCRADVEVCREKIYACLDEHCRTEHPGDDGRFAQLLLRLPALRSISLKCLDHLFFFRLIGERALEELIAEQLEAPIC
# Ecdysone receptor [3] = target: T3, Ecdysone receptor (Myzus persicae, UniProt A3EZJ9+A3EZK0); experiment: Binding affinity to Myzus persicae EcR (green peach aphid)
# T3 sequence (A3EZJ9 whole entry): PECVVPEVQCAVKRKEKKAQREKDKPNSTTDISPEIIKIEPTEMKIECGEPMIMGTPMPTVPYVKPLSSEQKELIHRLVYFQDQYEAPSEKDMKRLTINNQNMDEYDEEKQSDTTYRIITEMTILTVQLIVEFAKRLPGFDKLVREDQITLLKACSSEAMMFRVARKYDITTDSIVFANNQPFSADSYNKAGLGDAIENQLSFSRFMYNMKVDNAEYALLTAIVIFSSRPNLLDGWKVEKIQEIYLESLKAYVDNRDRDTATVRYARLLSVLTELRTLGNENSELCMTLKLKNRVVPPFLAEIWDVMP
# T3 sequence (A3EZK0 whole entry): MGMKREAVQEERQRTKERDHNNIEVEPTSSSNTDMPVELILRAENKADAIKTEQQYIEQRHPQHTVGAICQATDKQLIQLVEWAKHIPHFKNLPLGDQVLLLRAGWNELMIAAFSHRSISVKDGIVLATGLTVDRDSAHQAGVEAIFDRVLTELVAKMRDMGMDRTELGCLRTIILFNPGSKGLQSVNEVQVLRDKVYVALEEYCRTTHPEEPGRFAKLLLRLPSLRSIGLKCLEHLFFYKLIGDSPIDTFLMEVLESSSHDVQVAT
IC50 (Ecdysone receptor [1]),SMILES,Ki (Ecdysone receptor [2]),Ki (Ecdysone receptor [3])
166 nM,CC(C)(O)CC[C@@H](O)[C@](C)(O)[C@H]1CC[C@@]2(O)C3=CC(=O)[C@@H]4C[C@@H](O)[C@@H](O)C[C@]4(C)[C@H]3CC[C@]12C [20-HYDROXYECDYSONE],–,–
–,CCc1ccc(C(=O)NN(C(=O)c2cc(C)cc(C)c2)C(C)(C)C)cc1 [TEBUFENOZIDE],158 nM,> 126000 nM

# Reference: ChEMBL document CHEMBL3045439, “Isoforms of the heteropteran Nezara viridula ecdysone receptor: protein characterisation, RH5992 insecticide binding and homology modelling” (Pest Manag Sci, 2011)
